# Columns and labels:
# Weel kinase = biological target: T1, Weel kinase (Homo sapiens, UniProt P30291); test: Weel kinase-inhibitory effect (33P-ATP filter assay with purified GST-tagged Weel kinase); format: biochemical; conditions: Poly(Lys,Tyr) substrate, 10 μM ATP, 30° C. for 30 minutes
# T1 construct: made in house; host or cells: Sf9 insect cells (recombinant baculovirus)
# Source text: Pharmaceutical Test 1 (Weel Kinase-Inhibitory Effect)
# (1) Purification of Weel Kinase:
# A cDNA of Weel kinase with […] (GST) fused at the amino terminal thereof was inserted into a baculovirus expression vector to construct a recombinant baculovirus, with which cells of an insect cell line Sf9 were infected for high expression therein. The infected cells were recovered and solubilized, and then the GST-tagged Weel kinase protein was adsorbed by a glutathione column, and eluted from the column with glutathione, and the active fraction was desalted in a desalting column to give a purified enzyme.
# (2) Determination of Weel Kinase Activity:
# In determination of the Weel kinase activity, a synthetic peptide, Poly(Lys,Tyr) Hydrobromide (Lys:Tyr (4:1)) bought from Sigma was used as the substrate.
# The amount of the reaction mixture was 21.1 μL; and the composition of the reaction buffer was 50 mM Tris-HCl buffer (pH 7.4)/10 mM magnesium chloride/1 mM dithiothreitol. The purified Weel kinase, 2.5 μg of the substrate peptide, 10 μM of non-labeled adenosine triphosphate (ATP) and 1 μCi of [γ-^33P]-labeled ATP (2500 Ci/mmol or more) were added to it, and incubated at 30° C. for 30 minutes. Next, 10 μL of 350 mM phosphate buffer was added to the reaction mixture to stop the reaction. The substrate peptide was adsorbed by a P81 paper filter 96-well plate, then washed a few times with 130 mM phosphate buffer, and its radioactivity was counted with a liquid scintillation counter. The [γ-^33P]-labeled ATP was bought from Amersham Bioscience.
# To add the test compound to the reaction system, the compound was diluted with dimethylsulfoxide (DMSO) to prepare a series of dilutions. 1.1 μL of each dilution was added to the reaction system. As a control, 1.1 μL of DMSO was added to the reaction system.
# [1] = tested on: Human colon cancer cells WiDr; test: Tumor growth-inhibitory effect, WiDr tumor implanted subcutaneously in nude rats; format: in vivo, F344/N Jcl-mu nude rats; conditions: gemcitabine 50 mg/kg intravenously alone
# Procedure: Pharmaceutical Test 4 (Tumor Growth-Inhibitory Effect)
# Human colon cancer cells WiDr (gotten from ATCC) were implanted into the subcutaneous area of the back of F344/N Jcl-mu nude rats. Eight days after the implantation, gemcitabine (50 mg/kg, Gemzar injection, Eli-Lilly) was intravenously administered to them; and after 24 hours, a test compound was dissolved in a solvent (5% glucose) and given to them through continuous intravenous injection for 8 hours. The tumor volume (0.5×(major diameter)×(minor diameter)^2) was determined on day 0, 3, 6, 10 and 13. Day 0 means the day on which gemcitabine was administered. The relative tumor volume is a relative value, as calculated on the basis of the tumor volume of 1 on day 0. The tumor growth percentage (% T/C) was obtained according to the following formula:
# When the tumor volume change from day 0 in the group subjected to test compound administration is more than 0 (>0): % T/C=[(tumor volume change in the test compounds on day 3, 6, 10, 13)/(tumor volume change in the control on day 3, 6, 10, 13)]×100. When the tumor volume change from day 0 in the group subjected to test compound administration is less than 0 (<0): % T/C=[(tumor volume change in the test compounds on day 3, 6, 10, 13)/(tumor volume […])]×100.
# T1 sequence (P30291 whole entry): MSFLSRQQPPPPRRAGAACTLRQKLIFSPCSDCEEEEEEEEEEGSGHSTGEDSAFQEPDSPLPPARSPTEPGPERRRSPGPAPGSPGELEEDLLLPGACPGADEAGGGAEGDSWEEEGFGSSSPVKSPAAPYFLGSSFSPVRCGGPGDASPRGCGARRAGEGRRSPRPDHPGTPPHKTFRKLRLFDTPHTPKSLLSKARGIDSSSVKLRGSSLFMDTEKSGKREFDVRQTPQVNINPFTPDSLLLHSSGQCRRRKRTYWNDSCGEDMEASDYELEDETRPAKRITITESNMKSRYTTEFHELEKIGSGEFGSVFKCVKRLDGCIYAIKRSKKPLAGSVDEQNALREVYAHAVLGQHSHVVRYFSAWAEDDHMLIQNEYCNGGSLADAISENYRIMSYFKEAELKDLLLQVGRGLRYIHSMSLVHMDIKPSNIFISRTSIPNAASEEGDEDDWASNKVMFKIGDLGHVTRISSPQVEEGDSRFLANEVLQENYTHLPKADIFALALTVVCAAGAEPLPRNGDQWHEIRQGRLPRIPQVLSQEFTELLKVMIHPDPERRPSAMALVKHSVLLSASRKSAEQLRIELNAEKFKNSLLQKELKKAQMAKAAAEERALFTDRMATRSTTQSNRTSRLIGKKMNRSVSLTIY
Compound,IC50 (Weel kinase),also measured
"C=CCn1c(=O)c2cnc(Nc3ccc(N4CCN(C)CC4)cc3)nc2n1-c1cccc(C(=O)N(C)C)c1 [Example 1, 3-(2-allyl-6-{[4-(4-methylpiperazin-1-yl)phenyl]amino}-3-oxo-1,2-dihydro-3H-pyrazolo[3,4-d]pyrimidin-1-yl)-N,N-dimethylbenzamide]",7 nM,–
"C=CCn1c(=O)c2cnc(Nc3ccc(N4CCN(C)CC4)c(CO)c3)nc2n1-c1ccsc1 [Example 3, 2-allyl-6-{[3-(hydroxymethyl)-4-(4-methylpiperazin-1-yl)phenyl]amino}-1-(3-thienyl)-1,2-dihydro-3H-pyrazolo[3,4-d]pyrimidin-3-one]",7.6 nM,–
"C=CCn1c(=O)c2cnc(Nc3ccc(N4CCN(C)CC4)cc3)nc2n1-c1cccc(CN(C)C)c1 [Example 26, 2-allyl-1-[3-(dimethylaminomethyl)phenyl]-6-{[4-(4-methylpiperazin-1-yl)phenyl]amino}-1,2-dihydro-3H-pyrazolo[3,4-d]pyrimidin-3-one]",18 nM,–
"C=CCn1c(=O)c2cnc(Nc3ccc(N4CCN(C)CC4)c(CO)c3)nc2n1-c1ccccn1 [Example 29, 2-allyl-6-{[3-hydroxymethyl-4-(4-methylpiperazin-1-yl)phenyl]amino}-1-pyridin-2-yl-1,2-dihydro-3H-pyrazolo[3,4-d]pyrimidin-3-one]",20 nM,–
"C=CCn1c(=O)c2cnc(Nc3ccc(N4CCN(C)CC4)c(C)c3)nc2n1-c1cccc(CN(C)C)n1 [Example 52, 2-allyl-1-[6-[(dimethylamino)methyl]pyridin-2-yl]-6-{[3-methyl-4-(4-methylpiperazin-1-yl)phenyl]amino}-1,2-dihydro-3H-pyrazolo[3,4-d]pyrimidin-3-one]",12 nM,–
"C=CCn1c(=O)c2cnc(Nc3ccc(N4CCN(C)CC4)c(C)c3)nc2n1-c1cccc(OCCO)n1 [Example 98, 2-allyl-1-[6-(2-hydroxyethoxy)pyridin-2-yl]-6-{[3-methyl-4-(4-methylpiperazin-1-yl)phenyl]amino}-1,2-dihydro-3H-pyrazolo[3,4-d]pyrimidin-3-one]",14 nM,–
"C=CCn1c(=O)c2cnc(Nc3ccc(N4CCN(C)CC4)cc3)nc2n1-c1cccc(CN(C)S(C)(=O)=O)n1 [Example 99, N-{[6-(2-allyl-6-{[4-(4-methylpiperazin-1-yl)phenyl]amino}-3-oxo-1,2-dihydro-3H-pyrazolo[3,4-d]pyrimidin-1-yl)pyridin-2-yl]methyl}-N-methylmethanesulfonamide]",8.8 nM,–
"Cc1cc(Nc2ncc3c(=O)n(Cc4ccccc4)n(-c4ccccc4)c3n2)ccc1N1CCN(C)CC1 [Example 111, 2-benzyl-6-{[3-methyl-4-(4-methylpiperazin-1-yl)phenyl]amino}-1-phenyl-1,2-dihydro-3H-pyrazolo[3,4-d]pyrimidin-3-one]",24 nM,–
"C#CCn1c(=O)c2cnc(Nc3ccc(N4CCN(C)CC4)cc3)nc2n1-c1cccc(C(C)(C)O)n1 [Example 113, 1-[6-(1-hydroxy-1-methylethyl)pyridin-2-yl]-6-{[4-(4-methylpiperazin-1-yl)phenyl]amino}-2-(2-propynyl)-1,2-dihydro-3H-pyrazolo[3,4-d]pyrimidin-3-one]",6.3 nM,–
"CC(C)n1c(=O)c2cnc(Nc3ccc(C4CCN(C)CC4)cc3)nc2n1-c1cccc(C(C)(C)O)n1 [Example 147, 1-[6-(1-hydroxy-1-methylethyl)pyridin-2-yl]-2-isopropyl-6-{[4-(1-methylpiperidin-4-yl)phenyl]amino}-1,2-dihydro-3H-pyrazolo[3,4-d]pyrimidin-3-one]",24 nM,–
"C=CCn1c(=O)c2cnc(Nc3ccc(N4CCN(C)CC4)cc3)nc2n1-c1cccc(N2CCN(C)C2=O)n1 [Example 148, 2-allyl-1-[6-(3-methyl-2-oxoimidazolidin-1-yl)pyridin-2-yl]-6-{[4-(4-methylpiperazin-1-yl)phenyl]amino}-1,2-dihydro-3H-pyrazolo[3,4-d]pyrimidin-3-one]",17 nM,–
"Nc1ccn([C@@H]2O[C@H](CO)[C@@H](O)C2(F)F)c(=O)n1 [Gemcitabine, gemcitabine, reference compound]",–,% T/C day 3 ([1]; day 3): 22%; % T/C day 6 ([1]; day 6): 31%; % T/C day 10 ([1]; day 10): 54%; % T/C day 13 ([1]; day 13): 65%

# Source: patent US7834019B2, “Substituted pyrazolo[3,4-d]pyrimidinone derivatives” (Banyu Pharmaceutical Co., Ltd., priority 2006, dated 2010)
